Here are results for 27 compounds from ChEMBL document CHEMBL4619713, “Novel PDE5 inhibitors derived from rutaecarpine for the treatment of Alzheimer's disease” (Bioorg Med Chem Lett, 2020).

Experiment [1] has as its target cGMP-specific 3',5'-cyclic phosphodiesterase (Homo sapiens, UniProt O76074). Put plainly: Inhibition of PDE5A (unknown origin).
In experiment [2] the test system is Mus musculus. Put plainly: Cognitive enhancing effect in mouse mouse model of scopolamine-induced cognition deficit assessed as reduction in escape latency at 5 and 10 mg/kg by water maze test. The format is functional, organism-based.
The next experiment concerns the target Phosphodiesterase 4 (Homo sapiens, UniProt P27815+Q08499+Q07343+Q08493). Put plainly: Inhibition of PDE4 (unknown origin). The format is protein assay.
For experiment [3], the target named is cAMP and cAMP-inhibited cGMP 3',5'-cyclic phosphodiesterase 10A (Homo sapiens, UniProt Q9Y233). Put plainly: Inhibition of PDE10 (unknown origin).
In experiment [4] the target is cGMP-dependent 3',5'-cyclic phosphodiesterase (Homo sapiens, UniProt O00408). Put plainly: Inhibition of PDE2 (unknown origin).
Experiment [5] concerns Mus musculus. Put plainly: Cognitive enhancing effect in mouse mouse model of scopolamine-induced cognition deficit assessed as decrease in frequent error at 5 and 10 mg/kg by water maze test. The format is functional, organism-based.
Another experiment addresses Phosphodiesterase 6. Put plainly: Inhibition of PDE6 (unknown origin). Type of experiment: protein assay, Homo sapiens.
Experiment [6] is filed under the species Homo sapiens. Put plainly: Selectivity index, ratio of IC50 for PDE4 (unknown origin) to IC50 for PDE5A (unknown origin).
Experiment [7] is filed under the species Homo sapiens. Put plainly: Selectivity index, ratio of IC50 for PDE9 (unknown origin) to IC50 for PDE5A (unknown origin).
Experiment [8] deals with High affinity cGMP-specific 3',5'-cyclic phosphodiesterase 9A (Homo sapiens, UniProt O76083). Put plainly: Inhibition of PDE9 (unknown origin).
The species entered for experiment [9] is Homo sapiens. Put plainly: Selectivity index, ratio of IC50 for PDE2 (unknown origin) to IC50 for PDE5A (unknown origin).
Experiment [10] is filed under the species Homo sapiens. Put plainly: Selectivity index, ratio of IC50 for PDE6 (unknown origin) to IC50 for PDE5A (unknown origin).

Structures are written as SMILES. Activity calls are given as the source filed them. The calls are words filed in the database; no cut-off is given here.

Chain of cGMP-dependent 3',5'-cyclic phosphodiesterase (O00408 whole entry): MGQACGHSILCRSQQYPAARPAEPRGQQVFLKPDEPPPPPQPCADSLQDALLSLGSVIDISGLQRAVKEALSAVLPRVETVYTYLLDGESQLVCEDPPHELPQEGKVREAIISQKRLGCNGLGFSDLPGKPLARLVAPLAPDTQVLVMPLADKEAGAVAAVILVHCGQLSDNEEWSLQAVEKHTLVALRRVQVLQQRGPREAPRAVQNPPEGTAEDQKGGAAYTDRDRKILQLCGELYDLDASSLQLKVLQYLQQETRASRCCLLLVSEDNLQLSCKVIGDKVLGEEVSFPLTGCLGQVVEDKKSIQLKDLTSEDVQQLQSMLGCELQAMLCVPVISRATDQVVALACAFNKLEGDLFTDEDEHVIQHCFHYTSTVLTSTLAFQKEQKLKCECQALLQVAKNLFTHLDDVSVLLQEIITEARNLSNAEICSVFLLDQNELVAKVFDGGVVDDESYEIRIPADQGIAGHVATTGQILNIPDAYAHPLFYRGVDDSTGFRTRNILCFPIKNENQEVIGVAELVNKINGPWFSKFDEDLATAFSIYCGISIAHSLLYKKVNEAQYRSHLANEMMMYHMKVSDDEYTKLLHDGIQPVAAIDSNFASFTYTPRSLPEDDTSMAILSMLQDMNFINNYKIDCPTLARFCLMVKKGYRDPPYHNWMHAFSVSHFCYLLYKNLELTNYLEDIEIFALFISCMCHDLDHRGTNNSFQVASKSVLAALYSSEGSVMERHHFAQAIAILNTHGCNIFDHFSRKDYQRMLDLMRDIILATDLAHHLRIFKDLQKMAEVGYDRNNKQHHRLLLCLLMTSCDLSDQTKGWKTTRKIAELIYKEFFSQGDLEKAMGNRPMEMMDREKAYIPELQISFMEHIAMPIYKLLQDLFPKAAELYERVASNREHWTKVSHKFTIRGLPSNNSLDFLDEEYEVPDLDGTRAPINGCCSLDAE
Chain of cAMP and cAMP-inhibited cGMP 3',5'-cyclic phosphodiesterase 10A (Q9Y233 whole entry): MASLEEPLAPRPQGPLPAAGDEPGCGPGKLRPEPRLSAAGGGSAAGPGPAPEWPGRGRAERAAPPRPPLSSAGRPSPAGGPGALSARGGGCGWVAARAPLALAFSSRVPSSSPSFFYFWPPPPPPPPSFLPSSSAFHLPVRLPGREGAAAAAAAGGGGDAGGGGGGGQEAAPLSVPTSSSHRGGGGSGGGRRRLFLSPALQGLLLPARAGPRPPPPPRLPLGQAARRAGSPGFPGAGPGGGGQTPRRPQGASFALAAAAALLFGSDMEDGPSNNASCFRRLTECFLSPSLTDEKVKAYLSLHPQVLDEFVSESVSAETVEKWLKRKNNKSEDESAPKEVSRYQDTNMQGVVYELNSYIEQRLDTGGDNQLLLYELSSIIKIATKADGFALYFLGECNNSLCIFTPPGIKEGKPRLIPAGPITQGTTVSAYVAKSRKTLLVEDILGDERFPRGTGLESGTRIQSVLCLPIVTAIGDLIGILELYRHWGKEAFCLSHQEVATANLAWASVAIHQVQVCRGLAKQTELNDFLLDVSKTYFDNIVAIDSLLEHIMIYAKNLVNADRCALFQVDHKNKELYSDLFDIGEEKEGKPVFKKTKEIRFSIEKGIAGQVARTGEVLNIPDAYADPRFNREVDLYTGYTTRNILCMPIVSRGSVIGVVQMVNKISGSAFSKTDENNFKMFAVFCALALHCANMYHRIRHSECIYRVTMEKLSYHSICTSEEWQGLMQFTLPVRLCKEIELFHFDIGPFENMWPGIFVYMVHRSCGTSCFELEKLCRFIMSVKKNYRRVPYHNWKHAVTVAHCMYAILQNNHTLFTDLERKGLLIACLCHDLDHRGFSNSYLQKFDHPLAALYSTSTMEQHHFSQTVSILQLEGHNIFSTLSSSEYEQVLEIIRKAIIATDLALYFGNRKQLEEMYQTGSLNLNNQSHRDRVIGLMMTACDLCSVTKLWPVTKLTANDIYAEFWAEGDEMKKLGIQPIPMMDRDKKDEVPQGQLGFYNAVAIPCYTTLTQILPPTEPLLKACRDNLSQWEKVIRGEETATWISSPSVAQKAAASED
Chain of High affinity cGMP-specific 3',5'-cyclic phosphodiesterase 9A (O76083 whole entry): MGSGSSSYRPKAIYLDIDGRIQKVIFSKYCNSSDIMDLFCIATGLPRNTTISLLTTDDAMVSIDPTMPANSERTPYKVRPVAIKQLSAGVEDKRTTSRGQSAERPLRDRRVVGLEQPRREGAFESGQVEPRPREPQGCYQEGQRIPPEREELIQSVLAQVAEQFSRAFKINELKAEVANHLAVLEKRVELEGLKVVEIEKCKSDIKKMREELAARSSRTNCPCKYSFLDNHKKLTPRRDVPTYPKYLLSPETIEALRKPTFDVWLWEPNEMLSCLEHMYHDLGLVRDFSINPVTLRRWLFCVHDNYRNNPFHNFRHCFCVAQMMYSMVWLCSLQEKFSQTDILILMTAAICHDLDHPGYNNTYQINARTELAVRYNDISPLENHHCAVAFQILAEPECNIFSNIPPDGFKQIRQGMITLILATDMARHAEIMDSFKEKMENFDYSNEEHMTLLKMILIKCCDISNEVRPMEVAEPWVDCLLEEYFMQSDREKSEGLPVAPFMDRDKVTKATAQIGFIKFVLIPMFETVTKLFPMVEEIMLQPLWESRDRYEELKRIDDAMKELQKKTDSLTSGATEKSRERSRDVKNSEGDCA

In the case of `CCCn1c2c(c3ccc(OC)cc31)CCn1c-2nc2ccccc2c1=O`, the IC50 (usually the concentration that gives 50% inhibition) in experiment [1] came to 12.1 µM.
As to `CCCn1c2c(c3ccccc31)CCn1c-2nc2ccccc2c1=O`, the IC50 in experiment [1] is 1.7 µM.
The same measure, in the same setting: then `O=c1c2ccccc2nc2n1CCc1c-2[nH]c2ccccc12` [RUTAECARPINE], with 1.23 µM.
Same read-out and setting: then `CCCCn1c2c(c3c(O)cc(O)cc31)CCn1c-2nc2ccccc2c1=O`, with 0.26 µM; and `COc1cc2c(cc1OC)C(=O)C(CC1CCN(Cc3ccccc3)CC1)C2` (stereo not drawn) [DONEPEZIL], with greater than 100 µM; and `CCn1c2c(c3ccc(OC)cc31)CCn1c-2nc2ccccc2c1=O`, with 11.6 µM.
Same read-out and setting: then `COc1cc(OC)c2c3c(n(CCC(C)C)c2c1)-c1nc2ccccc2c(=O)n1CC3`, with 18.2 µM; and `CCCn1c2c(c3c(OC)cc(OC)cc31)CCn1c-2nc2ccccc2c1=O`, with 19.8 µM; and `O=c1c2ccccc2nc2n1CCc1c-2[nH]c2cc(O)cc(O)c12`, with 0.79 µM.
With `CCCCn1c2c(c3ccc(O)cc31)CCn1c-2nc2ccccc2c1=O`, the concentration for half-maximal inhibition (IC50) in experiment [1] stood at 0.63 µM.
In turn, `CC(C)CCn1c2c(c3ccc(O)cc31)CCn1c-2nc2ccccc2c1=O` displayed an IC50 in [1] of 0.11 µM.
Still for that read-out and setting: then `COc1ccc2c3c(n(CCC(C)C)c2c1)-c1nc2ccccc2c(=O)n1CC3`, with 6.17 µM; and `CCCn1c2c(c3c(O)cc(O)cc31)CCn1c-2nc2ccccc2c1=O`, with 0.33 µM; and `CCCn1c2c(c3ccc(O)cc31)CCn1c-2nc2ccccc2c1=O`, with 1.33 µM.
In the case of `CCn1c2c(c3ccccc31)CCn1c-2nc2ccccc2c1=O`, the midpoint of inhibition in [1], the IC50, lay at 1.12 µM.
Still for that read-out and setting: the result for `CCCCn1c2c(c3c(OC)cc(OC)cc31)CCn1c-2nc2ccccc2c1=O` reads 20.6 µM; that for `COc1cc(OC)c2c3c([nH]c2c1)-c1nc2ccccc2c(=O)n1CC3`, 45.6 µM; that for `COc1ccc2c3c([nH]c2c1)-c1nc2ccccc2c(=O)n1CC3`, 22.1 µM.
Same read-out and setting: then `CC(C)CCn1c2c(c3ccccc31)CCn1c-2nc2ccccc2c1=O`, with 0.61 µM.
As for `CC(C)CCn1c2c(c3c(O)cc(O)cc31)CCn1c-2nc2ccccc2c1=O`, the result in the experiment with Mus musculus [2] and with Mus musculus [5] was Active. Besides, the IC50 on Phosphodiesterase 4 was greater than 500 µM; in [3] it was 32.1 µM; in experiment [4], greater than 500 µM; in experiment [1], 0.086 µM; against Phosphodiesterase 6, 43.8 µM; in experiment [8] it was greater than 500 µM. Also, the Ratio IC50 in the experiment listed under Homo sapiens [6] was greater than 5000; in the experiment listed under Homo sapiens [7], greater than 5000; in the experiment listed under Homo sapiens [9], greater than 5000; in the experiment filed under Homo sapiens [10] it was greater than 500.
Turning to `CCn1c2c(c3c(OC)cc(OC)cc31)CCn1c-2nc2ccccc2c1=O`, the IC50 in experiment [1] stood at 47.3 µM.
On the same count and under the same terms, the result for `CCCCn1c2c(c3ccc(OC)cc31)CCn1c-2nc2ccccc2c1=O` reads 9.19 µM; that for `CCn1c2c(c3c(O)cc(O)cc31)CCn1c-2nc2ccccc2c1=O`, 0.97 µM.
The same measure, in the same setting: the result for `CCn1c2c(c3ccc(O)cc31)CCn1c-2nc2ccccc2c1=O` reads 0.97 µM; that for `O=c1c2ccccc2nc2n1CCc1c-2[nH]c2cc(O)ccc12`, 1.36 µM.
Consider `CCCc1nn(C)c2c(=O)[nH]c(-c3cc(S(=O)(=O)N4CCN(C)CC4)ccc3OCC)nc12`, for which the Ratio IC50 in the experiment filed under Homo sapiens [10] was 10.
In experiment [1], `CCCCn1c2c(c3ccccc31)CCn1c-2nc2ccccc2c1=O` came in with an IC50 of 1.12 µM.
